From US20240270762A1, “PENICILLIN-BINDING PROTEIN INHIBITORS” (priority 2021, published 2024)

What was measured:
[1] = target: A. baumannii PBP2 (Acinetobacter baumannii, UniProt D0C8Z9); test: Bocillin-FL competition binding via gel filtration, A. baumannii PBP2
Description: (§1) Affinity to A. baumannii PBP1a and PBP2 was assessed a competitive equilibrium binding assay using Bocillin-FL as the reporter molecule. Enzyme was pre-incubated with increasing concentrations of inhibitors, prior to addition of Bocillin and further incubation for 15 minutes. PBP bound with Bocillin-FL was separated by gel filtration using 96-well Zeba Spin size exclusion plates, and the fluorescence measured. The inhibitor affinity (reported as the EC50) was determined by plotting the fraction of PBP bound with Bocillin-FL at each inhibitor concentration against the inhibitor concentration, and fitting the data to the following equation:
(§2) [formula] • where y is the fraction bound at a given inhibitor concentration, ymin is the fraction bound when the enzyme is completely inactivated, ymax is the maximum (uninhibited) fraction bound, n is the Hill coefficient, and x is the inhibitor concentration.

[2] = target: T1, A. baumannii PBP1a (Acinetobacter baumannii, UniProt A0ABX6CK30); test: Bocillin-FL competition binding via gel filtration, A. baumannii PBP1a; conditions: competition binding assay using Bocillin-FL via gel filtration; read-out: A. baumannii PBP1a Potency
T1 sequence (A0ABX6CK30 1-851): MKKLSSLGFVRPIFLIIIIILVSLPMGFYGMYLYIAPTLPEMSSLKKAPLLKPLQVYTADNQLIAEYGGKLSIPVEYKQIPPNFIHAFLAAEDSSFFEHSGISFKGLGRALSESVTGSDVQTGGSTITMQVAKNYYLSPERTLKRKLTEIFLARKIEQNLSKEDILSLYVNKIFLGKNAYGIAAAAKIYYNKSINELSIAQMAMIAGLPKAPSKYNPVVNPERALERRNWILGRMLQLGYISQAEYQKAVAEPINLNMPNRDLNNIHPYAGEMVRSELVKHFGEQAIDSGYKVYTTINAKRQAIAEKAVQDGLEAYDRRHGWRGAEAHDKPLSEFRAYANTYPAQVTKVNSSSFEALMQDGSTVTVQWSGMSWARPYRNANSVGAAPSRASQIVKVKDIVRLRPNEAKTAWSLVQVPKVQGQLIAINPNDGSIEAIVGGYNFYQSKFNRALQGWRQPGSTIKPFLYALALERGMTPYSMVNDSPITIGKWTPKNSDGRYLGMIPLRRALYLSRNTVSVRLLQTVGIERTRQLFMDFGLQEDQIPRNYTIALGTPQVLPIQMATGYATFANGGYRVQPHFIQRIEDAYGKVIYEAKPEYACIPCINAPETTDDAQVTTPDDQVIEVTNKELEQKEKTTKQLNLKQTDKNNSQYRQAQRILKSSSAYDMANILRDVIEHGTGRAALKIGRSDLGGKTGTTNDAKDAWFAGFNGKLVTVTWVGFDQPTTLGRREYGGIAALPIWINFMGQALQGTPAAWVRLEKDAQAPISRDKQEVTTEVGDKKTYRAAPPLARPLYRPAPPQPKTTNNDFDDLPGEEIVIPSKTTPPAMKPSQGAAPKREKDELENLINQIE
Description: as §1, §2

[3] = system: B. thailandensis ATCC 700388; test: microbe, parasite or virus in culture; assay type: cell-based; conditions: Burkholderia thailandensis, ATCC700388, read-out: Minimum inhibitory concentration (MIC), B. thailandensis ATCC 700388
[4] = system: B. humptydooensis ATCC BAA-2767; test: microbe, parasite or virus in culture; assay type: cell-based; conditions: Burkholderia humptydooensis, ATCCBAA2767, read-out: Minimum inhibitory concentration (MIC), B. humptydooensis ATCC BAA-2767

Sequence of A. baumannii PBP2 (D0C8Z9 whole entry): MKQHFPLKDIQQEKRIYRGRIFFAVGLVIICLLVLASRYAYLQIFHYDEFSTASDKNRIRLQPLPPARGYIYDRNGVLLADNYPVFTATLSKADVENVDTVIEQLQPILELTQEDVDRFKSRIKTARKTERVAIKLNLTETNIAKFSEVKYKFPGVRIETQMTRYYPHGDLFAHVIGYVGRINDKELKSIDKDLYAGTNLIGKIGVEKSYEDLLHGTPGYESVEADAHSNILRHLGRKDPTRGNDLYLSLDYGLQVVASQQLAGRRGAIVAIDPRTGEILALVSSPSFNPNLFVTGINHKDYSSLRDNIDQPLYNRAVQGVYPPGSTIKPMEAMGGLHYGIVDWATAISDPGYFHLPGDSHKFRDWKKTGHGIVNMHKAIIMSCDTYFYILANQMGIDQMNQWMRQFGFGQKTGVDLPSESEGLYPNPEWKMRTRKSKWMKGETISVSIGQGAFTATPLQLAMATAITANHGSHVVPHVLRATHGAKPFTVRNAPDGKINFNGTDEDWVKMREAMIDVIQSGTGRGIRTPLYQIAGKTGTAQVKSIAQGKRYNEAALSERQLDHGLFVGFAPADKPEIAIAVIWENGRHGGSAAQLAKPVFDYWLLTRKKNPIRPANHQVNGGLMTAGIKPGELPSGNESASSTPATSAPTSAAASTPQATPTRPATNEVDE

Structure (SMILES): O=C(O)c1c(F)ccc2c1OB(O)[C@@H](NC(=O)C(NC(=O)N1CCN(C3CCN(S(=O)(=O)c4cc(O)cc(O)c4)CC3)C1=O)c1cc(F)c(O)c(O)c1Cl)C2 (stereo partly drawn) [Example 600, (3R)-3-(2-(2-chloro-5-fluoro-3,4-dihydroxyphenyl)-2-(3-(1-((3,5-dihydroxyphenyl)sulfonyl)piperidin-4-yl)-2-oxoimidazolidine-1-carboxamido)acetamido)-7-fluoro-2-hydroxy-3,4-dihydro-2H-benzo[e][1,2]oxaborinine-8-carboxylic acid]
- EC50 [1]: < 10 µM
- EC50 [2]: < 10 µM
- MIC [3]: > 128 µg/mL
- MIC [4]: > 128 µg/mL

Structure (SMILES): O=C(O)c1c(F)ccc2c1OB(O)[C@@H](NC(=O)[C@H](NC(=O)N1CCN(C3CCN(Cc4cc(O)ccc4F)CC3)C1=O)c1cc(F)c(O)c(O)c1Cl)C2 (single isomer, unassigned) [Example 608]
- EC50 [1]: 10 to 50 µM
- EC50 [2]: < 10 µM
- MIC [3]: < 1 µg/mL
- MIC [4]: < 1 µg/mL
